The text below walks through data of patent US20070149523A1, “Thiazole Analogues and Uses Thereof” (priority 2005, published 2007).

Test [1] concerns the target T1, EGF-R (Homo sapiens, UniProt P00533).
T1 construct: made in house; host or cells: Sf9 insect cells (baculovirus)
The experiment in a line: In vitro protein kinase assay (radioisotopic 33P, FlashPlate). Type of test: biochemical. Particulars: recombinant human kinase. The procedure:
(§1) The effect of the thiazole derivatives was tested on recombinant, human protein kinases in in vitro protein kinase assays.
(§2) The protein kinases were expressed in Sf9 insect cells as human recombinant GST-fusion proteins or as His-tagged proteins by means of the baculovirus expression system.
(§3) The kinase activity was measured with a radioisotopic protein kinase assay by measuring the incorporation of ^33P-phosphate into proteins or peptide substrates. The assays were performed in FlashPlate™ microtiter scintillation plates and incorporation of ^33P-phosphate was determined with a microplate scintillation counter.

In test [2] the target is T2, TIE2 (Homo sapiens, UniProt Q02763).
T2 construct: made in house; host or cells: Sf9 insect cells (baculovirus)
Described as above. It counts as biochemical. The following applies: recombinant human kinase. The procedure:
as §1, §2, §3

In test [3] the target is T3, Aurora A (Homo sapiens, UniProt O14965).
T3 construct: made in house; host or cells: Sf9 insect cells (baculovirus)
T3 sequence (O14965 1-403): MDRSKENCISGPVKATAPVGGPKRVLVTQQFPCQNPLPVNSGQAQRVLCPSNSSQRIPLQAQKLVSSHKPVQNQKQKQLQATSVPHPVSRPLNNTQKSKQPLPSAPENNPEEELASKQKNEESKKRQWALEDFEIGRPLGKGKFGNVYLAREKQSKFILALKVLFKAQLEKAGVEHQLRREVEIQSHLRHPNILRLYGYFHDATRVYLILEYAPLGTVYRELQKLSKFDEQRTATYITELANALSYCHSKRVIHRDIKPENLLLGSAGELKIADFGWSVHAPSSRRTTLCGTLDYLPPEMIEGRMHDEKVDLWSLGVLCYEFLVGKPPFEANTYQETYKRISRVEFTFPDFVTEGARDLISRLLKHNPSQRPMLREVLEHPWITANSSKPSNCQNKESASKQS
The test is described as above. Particulars: recombinant human kinase. It counts as biochemical. How it is done: as §1, §2, §3

In test [4] the target is T4, FLT3 (Homo sapiens, UniProt P36888).
T4 construct: made in house; host or cells: Sf9 insect cells (baculovirus)
T4 sequence (P36888 27-993): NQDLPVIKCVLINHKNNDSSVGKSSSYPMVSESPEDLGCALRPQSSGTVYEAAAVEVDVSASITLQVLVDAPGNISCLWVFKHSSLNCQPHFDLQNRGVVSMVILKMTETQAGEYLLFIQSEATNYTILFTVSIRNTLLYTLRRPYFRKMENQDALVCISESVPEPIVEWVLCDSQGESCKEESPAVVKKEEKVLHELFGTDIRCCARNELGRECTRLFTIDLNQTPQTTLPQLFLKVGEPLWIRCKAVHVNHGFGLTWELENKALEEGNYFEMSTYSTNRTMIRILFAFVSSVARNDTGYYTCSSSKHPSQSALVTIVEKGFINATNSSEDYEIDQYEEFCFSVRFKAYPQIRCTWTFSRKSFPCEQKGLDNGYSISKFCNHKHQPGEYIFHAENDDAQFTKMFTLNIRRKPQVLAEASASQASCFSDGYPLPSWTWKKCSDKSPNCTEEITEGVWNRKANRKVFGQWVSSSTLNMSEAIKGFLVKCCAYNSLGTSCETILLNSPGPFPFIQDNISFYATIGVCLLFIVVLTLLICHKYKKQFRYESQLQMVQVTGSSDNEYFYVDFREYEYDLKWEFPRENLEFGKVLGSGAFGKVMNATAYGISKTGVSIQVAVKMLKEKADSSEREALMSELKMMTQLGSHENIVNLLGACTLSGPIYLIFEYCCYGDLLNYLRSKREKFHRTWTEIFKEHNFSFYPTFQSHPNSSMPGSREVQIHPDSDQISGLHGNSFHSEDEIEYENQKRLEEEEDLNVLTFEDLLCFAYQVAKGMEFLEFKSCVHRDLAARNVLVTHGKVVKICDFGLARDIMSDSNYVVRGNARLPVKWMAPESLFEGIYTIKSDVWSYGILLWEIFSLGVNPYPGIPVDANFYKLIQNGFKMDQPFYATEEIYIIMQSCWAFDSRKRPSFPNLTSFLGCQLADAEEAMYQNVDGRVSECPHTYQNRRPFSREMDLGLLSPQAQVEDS
The description is as above. Type of test: biochemical. The following applies: recombinant human kinase. How it is done:
as §1, §2, §3

Test [5] concerns the target T5, VEGF-R3 (Homo sapiens, UniProt P35916).
T5 construct: made in house; host or cells: Sf9 insect cells (baculovirus)
The test is described as above. Type of test: biochemical. Particulars: recombinant human kinase. How it is done: as §1, §2, §3

The target in test [6] is T6, Aurora B (Homo sapiens, UniProt Q96GD4). The description is as above. Type of test: biochemical. More on the design: made in house; host or cells: Sf9 insect cells (baculovirus). The following applies: recombinant human kinase. The procedure:
as §1, §2, §3

Test [7] concerns the target T7, PDGF-Rβ (Homo sapiens, UniProt P09619). The description is as above. It counts as biochemical. Also noted: made in house; host or cells: Sf9 insect cells (baculovirus). The following applies: recombinant human kinase. How it is done: as §1, §2, §3
Target sequence in this assay (P09619 33-1106): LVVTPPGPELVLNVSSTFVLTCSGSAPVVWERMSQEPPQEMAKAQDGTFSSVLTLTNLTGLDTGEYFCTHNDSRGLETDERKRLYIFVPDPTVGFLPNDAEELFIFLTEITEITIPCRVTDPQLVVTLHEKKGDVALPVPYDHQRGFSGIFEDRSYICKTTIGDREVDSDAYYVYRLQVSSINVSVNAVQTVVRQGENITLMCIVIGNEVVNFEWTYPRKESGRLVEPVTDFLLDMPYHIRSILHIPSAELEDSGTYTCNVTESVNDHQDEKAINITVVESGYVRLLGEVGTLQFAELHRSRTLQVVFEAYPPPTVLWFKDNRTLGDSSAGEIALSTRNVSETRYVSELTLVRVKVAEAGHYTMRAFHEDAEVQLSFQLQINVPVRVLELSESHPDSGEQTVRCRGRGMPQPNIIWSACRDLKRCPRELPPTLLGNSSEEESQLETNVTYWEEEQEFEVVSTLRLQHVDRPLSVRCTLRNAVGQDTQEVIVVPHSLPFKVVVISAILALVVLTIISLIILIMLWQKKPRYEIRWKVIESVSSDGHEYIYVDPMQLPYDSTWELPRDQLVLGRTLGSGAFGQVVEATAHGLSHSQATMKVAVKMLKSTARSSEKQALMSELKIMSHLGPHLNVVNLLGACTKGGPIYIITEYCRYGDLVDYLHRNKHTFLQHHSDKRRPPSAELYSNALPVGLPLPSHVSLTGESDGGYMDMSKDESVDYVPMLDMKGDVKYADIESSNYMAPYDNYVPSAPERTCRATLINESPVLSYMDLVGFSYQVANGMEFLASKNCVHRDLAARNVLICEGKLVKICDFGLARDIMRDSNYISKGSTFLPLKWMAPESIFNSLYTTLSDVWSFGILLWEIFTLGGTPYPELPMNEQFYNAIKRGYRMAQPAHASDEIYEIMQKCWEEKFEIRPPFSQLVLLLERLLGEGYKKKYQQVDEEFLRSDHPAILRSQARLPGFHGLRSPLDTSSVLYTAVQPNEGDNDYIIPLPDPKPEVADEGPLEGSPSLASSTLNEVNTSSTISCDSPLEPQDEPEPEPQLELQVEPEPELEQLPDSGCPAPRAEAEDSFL
In test [8] the target is T8, VEGF-R2 (Homo sapiens, UniProt P35968). Described as above. Type of test: biochemical. More on the design: made in house; host or cells: Sf9 insect cells (baculovirus). The following applies: recombinant human kinase. How it is done: as §1, §2, §3
Target sequence in this assay (P35968 20-1356): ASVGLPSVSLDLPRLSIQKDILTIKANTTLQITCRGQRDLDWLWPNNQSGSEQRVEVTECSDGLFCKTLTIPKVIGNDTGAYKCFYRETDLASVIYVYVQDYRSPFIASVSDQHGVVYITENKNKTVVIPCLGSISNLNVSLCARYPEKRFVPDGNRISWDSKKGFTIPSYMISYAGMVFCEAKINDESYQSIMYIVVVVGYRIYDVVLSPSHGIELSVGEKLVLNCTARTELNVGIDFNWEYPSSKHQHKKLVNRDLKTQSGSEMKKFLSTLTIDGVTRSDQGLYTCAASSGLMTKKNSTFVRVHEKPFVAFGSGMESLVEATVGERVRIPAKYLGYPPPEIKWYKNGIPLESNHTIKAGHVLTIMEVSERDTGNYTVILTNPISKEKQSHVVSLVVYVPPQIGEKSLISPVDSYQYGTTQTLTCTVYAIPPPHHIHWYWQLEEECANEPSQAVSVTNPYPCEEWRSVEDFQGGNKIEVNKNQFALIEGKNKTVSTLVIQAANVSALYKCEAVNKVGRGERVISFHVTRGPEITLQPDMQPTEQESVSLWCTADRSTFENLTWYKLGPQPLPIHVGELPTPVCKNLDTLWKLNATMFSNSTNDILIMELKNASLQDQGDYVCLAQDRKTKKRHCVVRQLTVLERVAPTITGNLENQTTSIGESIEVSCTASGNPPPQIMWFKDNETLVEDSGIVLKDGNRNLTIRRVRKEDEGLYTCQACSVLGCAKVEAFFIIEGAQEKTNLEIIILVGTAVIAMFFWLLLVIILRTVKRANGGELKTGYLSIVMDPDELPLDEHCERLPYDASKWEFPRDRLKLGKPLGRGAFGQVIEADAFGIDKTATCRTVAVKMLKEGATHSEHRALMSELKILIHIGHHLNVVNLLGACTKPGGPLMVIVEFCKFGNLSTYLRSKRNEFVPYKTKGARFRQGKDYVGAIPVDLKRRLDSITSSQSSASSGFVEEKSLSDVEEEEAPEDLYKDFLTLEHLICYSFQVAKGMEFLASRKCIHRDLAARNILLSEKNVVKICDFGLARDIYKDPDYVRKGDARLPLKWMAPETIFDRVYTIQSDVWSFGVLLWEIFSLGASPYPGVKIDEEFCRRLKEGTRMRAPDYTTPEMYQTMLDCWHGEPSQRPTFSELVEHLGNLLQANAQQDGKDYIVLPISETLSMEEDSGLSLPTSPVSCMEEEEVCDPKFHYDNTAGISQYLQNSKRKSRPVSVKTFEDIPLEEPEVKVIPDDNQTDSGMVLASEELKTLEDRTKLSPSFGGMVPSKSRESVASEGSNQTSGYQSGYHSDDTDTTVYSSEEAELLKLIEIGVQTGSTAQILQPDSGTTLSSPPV
Test [9] has as its target T7, PDGF-Rβ. The experiment in a line: Cellular Receptor Tyrosine Kinase Assay (autophosphorylation, sandwich ELISA). It counts as cell-based. More on the design: host or cells: unnamed cell line. The following applies: ligand-induced receptor autophosphorylation in cells. How it is done: (§4) The effect of thiazole derivatives was tested by determining the inhibition of different receptor tyrosine kinases (RTKs) in various cell lines which expressed the following growth factor receptors: EGF-R, PDGF-R, TIE2, IGF-1R, EPHB4, and VEGF-R2. Receptor autophosphorylation was induced by specific ligands for each receptor. […] Test compounds were applied to cells prior to stimulation. Cells were lysed using a standard lysis buffer preserving the distinct phosphoprotein levels. RTK-phosphorylation was quantified via sandwich ELISA using receptor-specific capture antibodies and a phosphotyrosine antibody.
(§5) Sigmoidal inhibitor curves based on relative inhibition compared with phosphorylation levels under high control conditions were generated which allowed the determination of IC50 values for each test compound.
(In general: ELISA stands for enzyme-linked immunosorbent assay.)
Target sequence in this assay (P09619 33-1106, species assumed): as the sequence (P09619 33-1106) above

Test [10] deals with T8, VEGF-R2. Described as above. More on the design: host or cells: unnamed cell line. Particulars: ligand-induced receptor autophosphorylation in cells. Type of test: cell-based. How it is done:
as §4, §5
Target sequence in this assay (P35968 20-1356, species assumed): as the sequence (P35968 20-1356) above

Test [11] addresses T6, Aurora B. The experiment in a line: Cellular Aurora-B Kinase Assay (endoreduplication of genomic DNA, PI/FACS). It counts as cell-based. Also noted: endogenous in cells; host or cells: HT29 colon carcinoma cells. The following applies: HT29 colon-carcinoma cells, 3 days treatment, EndoR-population. The procedure:
The effect of thiazole derivatives was tested in a cellular Aurora-B assay by measuring the effect of the test compounds on the endoreduplication (EndoR) of genomic DNA. Endoreduplication is detectable in cells as DNA-content higher then 4 n. Propidium Iodine (PI) was used to quantify the DNA content using a fluorescence activated cell sorter (FACS).
In the experiment, HT29 colon-carcinoma cells were treated with test compounds at different concentrations for 3 days. On day 5 cells were harvested and fixed in methanol. On day 6 cells were rehydrated and incubated with RNAse A and PI. Incorporated PI was detected by FACS measuring fluorescence emission at 650 nm upon excitation at 488 nm. For each compound concentration the percentage of EndoR-population as compared to the whole cell population was determined. For estimation of IC50 values of Aurora-B inhibition the percentages of EndoR-populations were plotted versus compound concentrations.

T5 sequence (P35916 25-1363): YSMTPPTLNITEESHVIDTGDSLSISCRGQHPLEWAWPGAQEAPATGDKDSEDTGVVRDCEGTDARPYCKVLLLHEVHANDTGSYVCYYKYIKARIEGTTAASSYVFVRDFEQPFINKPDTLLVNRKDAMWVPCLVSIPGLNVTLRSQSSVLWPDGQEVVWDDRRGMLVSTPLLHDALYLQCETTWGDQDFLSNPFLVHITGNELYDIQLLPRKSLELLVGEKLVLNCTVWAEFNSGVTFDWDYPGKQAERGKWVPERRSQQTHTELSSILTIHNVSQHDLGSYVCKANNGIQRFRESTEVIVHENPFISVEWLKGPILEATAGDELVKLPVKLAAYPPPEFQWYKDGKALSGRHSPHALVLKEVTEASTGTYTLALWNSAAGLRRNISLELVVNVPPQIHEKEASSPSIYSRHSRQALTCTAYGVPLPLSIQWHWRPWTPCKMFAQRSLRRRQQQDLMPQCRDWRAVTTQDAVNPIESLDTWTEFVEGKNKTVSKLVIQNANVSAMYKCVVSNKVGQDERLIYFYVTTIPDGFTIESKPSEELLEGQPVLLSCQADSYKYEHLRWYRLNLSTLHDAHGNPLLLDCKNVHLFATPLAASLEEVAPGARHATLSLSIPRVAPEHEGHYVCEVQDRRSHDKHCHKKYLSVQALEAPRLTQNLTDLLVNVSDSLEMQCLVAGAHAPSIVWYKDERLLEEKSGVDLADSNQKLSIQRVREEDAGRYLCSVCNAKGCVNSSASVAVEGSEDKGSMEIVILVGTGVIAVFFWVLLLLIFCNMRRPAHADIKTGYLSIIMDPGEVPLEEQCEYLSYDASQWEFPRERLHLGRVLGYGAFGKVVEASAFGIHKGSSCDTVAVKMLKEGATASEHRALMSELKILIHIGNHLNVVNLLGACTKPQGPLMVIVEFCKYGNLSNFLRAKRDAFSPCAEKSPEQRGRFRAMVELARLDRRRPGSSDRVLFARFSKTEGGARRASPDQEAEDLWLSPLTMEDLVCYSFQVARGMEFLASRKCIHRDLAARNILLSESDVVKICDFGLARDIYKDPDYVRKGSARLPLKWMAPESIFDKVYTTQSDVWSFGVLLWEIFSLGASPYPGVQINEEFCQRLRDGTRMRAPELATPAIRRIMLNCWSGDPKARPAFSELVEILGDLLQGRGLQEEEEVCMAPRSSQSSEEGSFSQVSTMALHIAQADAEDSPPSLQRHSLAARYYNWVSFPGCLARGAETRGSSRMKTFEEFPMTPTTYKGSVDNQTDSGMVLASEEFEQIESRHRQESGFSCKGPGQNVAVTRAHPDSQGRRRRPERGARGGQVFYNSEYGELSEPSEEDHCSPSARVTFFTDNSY
T6 sequence (Q96GD4 whole entry): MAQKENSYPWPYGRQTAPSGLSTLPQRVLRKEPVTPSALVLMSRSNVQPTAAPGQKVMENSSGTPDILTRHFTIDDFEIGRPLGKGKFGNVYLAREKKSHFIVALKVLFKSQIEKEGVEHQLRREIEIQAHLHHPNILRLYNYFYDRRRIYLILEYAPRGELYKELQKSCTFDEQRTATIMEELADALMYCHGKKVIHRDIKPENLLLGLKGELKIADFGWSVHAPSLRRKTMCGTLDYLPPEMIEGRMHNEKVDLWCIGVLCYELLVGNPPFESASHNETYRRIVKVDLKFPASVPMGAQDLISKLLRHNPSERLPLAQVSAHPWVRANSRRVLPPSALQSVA

A word on the IC50: it is the concentration that gives 50% inhibition. On to `COc1cc2ncnc(Nc3ncc(CCC(=O)Nc4cccc(F)c4)s3)c2cc1OC` [Compound 7, 3-(2-(6,7-dimethoxyquinazolin-4-ylamino)thiazol-5-yl)-N-(3-fluorophenyl)propanamide], for which the IC50 in [1] was 43 µM; in [2], 21 µM; in test [3], 1.3 µM; in test [4], 25 µM; in [5], 1.1 µM; in test [6], 2.9 µM. Besides, the IC50 is 41 µM in test [7] and 1.5 µM in test [8].

For `COc1cc2ncnc(Nc3ncc(CCC(=O)Nc4ccc(F)cc4)s3)c2cc1OC` [Compound 8, 3-(2-(6,7-dimethoxyquinazolin-4-ylamino)thiazol-5-yl)-N-(4-fluorophenyl)propanamide], the IC50 in test [1] was 61 µM; in test [2] it was 14 µM; in test [3], 6 µM; in test [4], 5.4 µM; in test [5] it was 1.1 µM; in test [6], 2.3 µM. The IC50 amounted to 27 µM in test [7] and 0.96 µM in [8].

For `COc1cc2c(Nc3ncc(CCNC(=O)c4cccc(F)c4)s3)ncnc2cc1OCCCN1CCCC1` [Compound 1, 3-fluoro-N-(2-{2-[6-methoxy-7-(3-pyrrolidin-1-yl-propoxy)-quinazolin-4-ylamino]-thiazol-5-yl}-ethyl)-benzamide], the IC50 amounted to 0.9 µM in test [2]; 0.1 µM in test [3]; 5.5 µM in test [4]; 2.2 µM in [5]; 1.1 µM in [9]; 14 µM in test [10]. The IC50 in test [11] turned out to be 1.1 µM; in [6] it was 0.36 µM; in [7], 11 µM; in test [8], 2.6 µM.

In the case of `COc1cc2c(Nc3ncc(CCNC(=O)c4ccccc4)s3)ncnc2cc1OCCCN1CCCC1` [Compound 2, N-(2-{2-[6-methoxy-7-(3-pyrrolidin-1-yl-propoxy)-quinazolin-4-ylamino]-thiazol-5-yl}-ethyl)-benzamide], the IC50 in test [1] amounted to 20 µM; in [2], 1 µM; in test [3] it was 0.16 µM; in test [4] it was 11 µM; in test [5], 2.8 µM; in [6] it was 0.62 µM. For the same compound, the IC50 was found to be 15 µM in [7] and 2 µM in [8].

In the case of `COC(=O)CCc1cnc(Nc2ncnc3cc(OC)c(OC)cc23)s1` [Compound 3, 3-[2-(6,7-dimethoxy-quinazolin-4-ylamino)-thiazol-5-yl]-propionic acid methyl ester], the IC50 in test [1] was determined as 4 µM; in test [2], 3.4 µM; in [3], 0.99 µM; in [4], 8.9 µM; in test [5] it was 0.56 µM; in test [6], 2.4 µM. The IC50 is 11 µM in test [7] and 0.39 µM in test [8].

With `COc1cc2c(Nc3ncc(CCC(=O)Nc4cccc(F)c4)s3)ncnc2cc1OCCCN1CCCC1` [Compound 5, N-(3-fluoro-phenyl)-3-{2-[6-methoxy-7-(3-pyrrolidin-1-yl-propoxy)-quinazolin-4-ylamino]-thiazol-5-yl}-propionamide], the IC50 was 29 µM in test [1]; 0.36 µM in [2]; 0.4 µM in [3]; 0.38 µM in test [4]; 0.074 µM in test [5]; 0.61 µM in [6]. Besides, the figures for the IC50 in test [7] and in test [8] were 0.56 µM and 0.065 µM, respectively.
